In the experiment the test system is pSTAT5 in CD3+ T cells. In words: pSTAT5 flow cytometry assay in mouse whole blood. Type of experiment: in vivo. Conditions: 300 mg/kg/dose oral BID; day 8 of dosing, 2 hours post 16th dose; 100 ng/mL murine IL-2. How it is done: Whole blood was drawn into EDTA powder coated tubes by cardiac puncture from mice on day 8 of dosing with indicated PTPN2/1B inhibitor (2 hours after the 16th dose). 100 μL of whole blood were stimulated with 100 ng/mL murine IL-2 (R&D Systems, Minneapolis, Minn., cat #402-ML) for 20 minutes at 37° C., 5% CO2. After stimulation, 1.8 mL of prewarmed BD Phosflow Lyse/Fix Buffer (BD Biosciences, San Jose, Calif.) was added for 20 minutes at 37° C. Cells were washed twice in FACS buffer (Dulbecco's PBS with 0.2% BSA) and incubated for 30 minutes on ice in cold Perm Buffer III (BD Biosciences, San Jose, Calif.). Cells were washed with FACS buffer and resuspended in […] of FACS buffer with antibodies and stained for 3 hours at room temperature with gentle shaking. […] After staining, cells were washed twice with FACS buffer, and the samples were acquired on a BD LSRFortessa™ X20 flow cytometers (BD Biosciences, San Jose, Calif.) and analyzed with FLowJo V10 software (FlowJo, Ashland, Oreg.). The mean fluorescence intensity (MFI) of pSTAT5 as a measure of the amount of phosphorylated STAT5 in the CD3+ T cell population was reported as fold-change of compound treated over vehicle treated animal groups.
On the technique in general: In flow cytometry, cells or beads pass a laser one at a time.

As to `COc1ccc2cc(O)c(N3CC(=O)NS3(=O)=O)c(F)c2c1` [Compound 124, 5-(1-fluoro-3-hydroxy-7-methoxynaphthalen-2-yl)-1λ^6,2,5-thiadiazolidine-1,1,3-trione], the “pSTAT5 level in CD3+ T cells from IL2 stimulated whole blood [fold increase over vehicle]” value was found to be 2.3 fold.

The record behind these values is US20210009542A1 (Calico Life Sciences LLC, priority 2018, published 2021).
